Earlier results as cited in patent publication US20120214870A1, “METHODS FOR DIAGNOSIS AND TREATMENT OF CHRONIC FATIGUE SYNDROME” (UNIVERSITY OF SOUTH AUSTRALIA, priority 2009, published 2012).
Entries after “also recorded” stand apart in the source; their conditions may differ.

Experiments:
CPT-I = conditions: Yoon et al., 2003; Amengual et al., 2008

## CC(=O)O[C@H](CC(=O)[O-])C[N+](C)(C)C [C2, acetyl-L-carnitine]
CFS patients; supplementation (Vermeulen & Scholte, 2004; Malaguarnera et al. 2008)
  mental fatigue and attention concentration: significant improvements

## CCC(=O)O[C@H](CC(=O)[O-])C[N+](C)(C)C [C3, propionyl-L-carnitine]
CFS patients; administration (Vermeulen & Scholte, 2004)
  general and physical fatigue: significant improvements

## C[N+](C)(C)C[C@H](O)CC(=O)[O-] [LC, L-carnitine]
CFS patients; after 2 months of supplementation (Plioplys and Plioplys, 1997)
  fatigue severity in CFS patients: significantly reduce
CPT-I
  CPT-I expression or activity: increase; also recorded: upregulate

## CC1=C(/C=C/C(C)=C/C=C/C(C)=C/C(=O)O)C(C)(C)CCC1 [all-trans retinoic acid, reference compound]
CPT-I
  CPT-I expression or activity: upregulate
